Reference: PubChem BioAssay (NCI)
Values joined by “and” are separate entries in the source; they are usually repeats but may differ in a detail not shown here. Equal values may be shown once.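 Tested at 5 concentrations; 48 h exposure; 96-well plates; endpoints linearly interpolated, else capped at highest concentration. GI50 marks 50% less growth. TGI marks complete inhibition of growth.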

What was measured:
Experiment in all cases: DTP human tumour cell line panel, 48 h
[1] = test system: OVCAR-5 ovarian
[2] = test system: SNB-19 CNS
[3] = test system: RPMI-8226 leukemia
[4] = test system: EKVX NSCLC
[5] = test system: IGROV1 ovarian
[6] = test system: DMS 114 small cell lung
[7] = test system: DMS 273 small cell lung
[8] = test system: KM12 colon
[9] = test system: SR leukemia
[10] = test system: MALME-3M melanoma

SMILES	TGI [1]	TGI [2]	TGI [3]	TGI [4]	TGI [5]	TGI [6] [µM]	TGI [7] [µM]	TGI [8]	TGI [9]	TGI [10]	GI50 [1]	GI50 [2] [µM]	GI50 [3]	GI50 [4]	GI50 [5]	GI50 [6] [µM]	GI50 [7]	GI50 [8]	GI50 [10]	GI50 [9]
Cc1c(Cl)ccc2c1NC(=O)C2(O)CC(=O)c1ccc(Cl)cc1Cl (configuration not stated)	> 50 µM	> 50 µM	> 50 µM	> 50 µM	> 50 µM	> 50	> 50	> 50 µM	0.826 µM	> 50 µM	–	–	–	–	–	–	–	–	–	–
O=c1cc2n(c(=O)[nH]1)C1OC(C(O)C1O)[C@@H]2CCO (some centres not stated)	> 100 µM	> 100 µM	–	> 100 µM	> 100 µM	> 100	> 100	> 100 µM	> 100 µM	> 100 µM	–	–	–	–	–	–	–	–	–	–
[Cu+2].[Cu+2].[O-]c1ccccc1C=Nc1ccccc1[O-].[O-]c1ccccc1C=Nc1ccccc1[O-]	32.6 µM	17.8 µM	54.6 µM	25.9 µM	12.2 µM	5.13	13.6	27 µM	–	27.3 µM	17.7 µM	5.32	3.5 µM	11.8 µM	3.33 µM	1.96	2.54 µM	10 µM	13.7 µM	–
CCCCN(CC)C(=O)C(=O)C1C(=O)Nc2ccccc2S1=O (configuration not stated)	> 100 µM	> 100 µM	> 100 µM	> 100 µM	> 100 µM	> 100	> 100	> 100 µM	–	> 100 µM	–	–	–	–	–	–	–	–	–	–
COc1nc(OC)c2c(=O)oc(-c3ccccc3)cc2n1	> 100 µM	> 100 µM	> 100 µM	> 100 µM	> 100 µM	> 100	> 100	> 100 µM	> 100 µM	> 100 µM	–	–	–	–	–	–	–	–	–	–
CCc1nc2c(O)ccc(O)c2nc1C	33.5 µM	33.7 µM	> 43.8 µM	31.1 µM	33.1 µM	36.1	37	30.8 µM	> 100 µM	29.3 µM	–	–	–	–	–	–	–	–	–	–
O=C(O)CSc1n[nH]c(/C=C/c2ccccc2)n1	> 100 µM	> 100 µM	> 100 µM	> 100 µM	> 100 µM	> 100	> 100	> 100 µM	> 100 µM	> 100 µM	–	–	–	–	–	–	–	–	–	–
COC(=O)N1[C@H]2Cc3c(OC)c(C)c(OC)c(OC)c3[C@@H]1/C(=C\c1cc(OC)c(OC)c(C)c1OC)N(Cc1ccccc1)C2=O	> 100 µM	> 100 µM	> 100 µM	> 100 µM	> 100 µM	35.3	> 100	> 100 µM	94.1 µM	88.7 µM	–	–	–	–	–	–	–	–	–	–
COC(=O)c1cnc2nc(N3CCOCC3)[nH]n2c1=O	> 100 µM	> 100 µM	> 100 µM	> 100 µM	> 100 µM	> 100	> 100	> 100 µM	> 100 µM	> 100 µM	–	–	–	–	–	–	–	–	–	–
C=C1C(=O)O[C@@H]2C[C@]3(C)[C@@H](C[C@H]12)[C@](C)(O)CC[C@@H]3O	> 100 µM	> 100 µM	> 100 µM	> 100 µM	> 100 µM	> 100	> 100	> 100 µM	–	> 100 µM	–	–	–	–	–	–	–	–	–	–
CC(NC(=O)c1ccccc1)C(=O)N(Cc1ccccc1)Cc1ccccc1 (configuration not stated)	> 100 µM	> 100 µM	45.7 µM	–	> 100 µM	53.8	47.1	58 µM	64.6 µM	53.7 µM	–	–	–	–	–	–	–	–	–	–
Cc1c(/C=C2\CC/C(=C\c3[nH]c(C(=O)OC(C)(C)C)c(C)c3C)C2=O)[nH]c(C(=O)OC(C)(C)C)c1C	> 100 µM	> 100 µM	> 100 µM	> 100 µM	> 100 µM	> 100	> 100	> 100 µM	> 100 µM	> 100 µM	–	–	–	–	–	–	–	–	–	–
COc1ccc(CNc2cc(OC)cc(OC)c2)cc1	> 100 µM	> 100 µM	> 100 µM	> 100 µM	> 100 µM	> 100	> 100	> 100 µM	–	> 100 µM	> 78.1 µM	–	–	–	–	–	> 100 µM and 42.3 µM	–	–	–
CC(=O)O[C@]1(C(C)=O)CC[C@H]2[C@@H]3C[C@H](C)C4=CC(=O)C=C[C@]4(C)[C@@]3(F)[C@@H](O)C[C@@]21C	> 100 µM	> 100 µM	> 100 µM	> 100 µM	> 100 µM	> 100	> 100	> 100 µM	> 100 µM	> 100 µM	–	–	–	–	–	–	–	–	–	–
CCCCCCC1CCC2CCCC(C)N12 (configuration not stated)	–	> 100 µM	53.9 µM	> 100 µM	–	> 100	> 100	> 100 µM	58.4 µM	> 10 µM	–	–	–	–	–	–	–	–	–	–
Cc1c(Cl)cccc1NC(=O)CC1Sc2ccccc2NC1=O (configuration not stated)	> 100 µM	52.8 µM and 42.5 µM	> 100 µM	> 100 µM	65 µM and > 100 µM	> 100	> 100	> 91.6 µM and 45.9 µM	56.7 µM	50.7 µM and 47.2 µM	–	–	–	–	20 µM and 45.1 µM	–	10.6 µM and 26 µM	–	–	–
CCCCOC1CC2(c3ccc(OC)cc3)C(=O)c3ccccc3N2O1 (configuration not stated)	> 10 µM	> 10 µM	65.7 µM	> 100 µM	> 10 µM	99.5	> 10	> 100 µM	–	58.3 µM	–	–	–	–	–	–	–	–	–	–
CCOC(C)OCC#CCCBr (configuration not stated)	> 100 µM	> 100 µM	> 100 µM	> 100 µM	> 100 µM	> 100	> 100	> 100 µM	–	> 100 µM	–	–	–	–	–	–	–	–	–	–
COc1ccc(OC)c(/C=C/[N+](=O)[O-])c1	4.45 µM and 9.01 µM	15.2 µM and 9.89 µM	4.42 µM and 4.74 µM	6.18 µM and 16.7 µM	6.97 µM and 8.79 µM	11.9	6.99	7.27 µM and 27.4 µM	1.85 µM and 3.92 µM	7.26 µM and 11 µM	2.11 µM and 4.32 µM	–	1.74 µM	2.42 µM and 6.47 µM	2 µM and 3.79 µM	–	–	2.6 µM and 13.3 µM	2.19 µM and 5.66 µM	0.467 µM and 0.865 µM
COC1/C=C/O[C@@]2(C)Oc3c(C)c(O)c4c(O)c(cc(O)c4c3C2=O)NC(=O)/C(C)=C\C=C\[C@H](C)C(O)[C@@H](C)[C@@H](O)[C@@H](C)[C@H](OC(C)=O)[C@@H]1C (some centres not stated)	80.1 µM	220 µM	17.2 µM and 47.4 µM	27.8 µM and 136 µM	29.5 µM and 56.3 µM	20.6	32.7	35.4 µM and 97.2 µM	20.6 µM and 42.7 µM	25.9 µM and 77.9 µM	–	51.8	2.14 µM and 7.37 µM	14.2 µM and 58.6 µM	16 µM	–	–	19 µM	12.8 µM	3.92 µM
O=C(/C=C/c1ccc(OCCCCCCCCCCOc2ccc(/C=C/C(=O)c3ccc(Cl)cc3)cc2)cc1)c1ccc(Cl)cc1	> 100 µM	> 100 µM	> 100 µM	> 100 µM	> 100 µM	> 100	> 100	> 100 µM	–	> 100 µM	–	–	–	–	–	–	–	–	–	–
CS(=O)(=O)C1S(=O)(=O)OCCOS1(=O)=O	> 100 µM	> 100 µM	> 100 µM	> 100 µM	> 100 µM	> 100	> 100	> 100 µM	> 100 µM	> 100 µM	–	–	–	–	–	–	–	–	–	–
O=[N+]([O-])c1ccccc1S(=O)c1ccccc1 (configuration not stated)	> 100 µM	> 100 µM	> 100 µM	–	> 100 µM	51.8	> 100	> 100 µM	> 100 µM	> 100 µM	–	–	–	–	–	–	–	–	–	–
O=C(Cn1ccnc1[N+](=O)[O-])N(CCO)CCO	> 1250 µM	> 1250 µM	250 µM and > 1250 µM	> 1250 µM	> 1250 µM	> 1250	> 1250	> 1250 µM	> 79 µM	224 µM and > 1250 µM	> 1250 µM	> 1250	> 1250 µM	> 1250 µM	> 1250 µM	–	–	> 1250 µM	> 1250 µM	–
